Measured values: ChEMBL document CHEMBL5380836, “Design and Structural Optimization of Methionine Adenosyltransferase 2A (MAT2A) Inhibitors with High In Vivo Potency and Oral Bioavailability” (J Med Chem, 2023)
Activity calls are given as the source filed them. The rule behind the calls is not given here.

Key:
[1] = tested on: HCT-116; experiment: Antiproliferative activity against human HCT-116 cells assessed as inhibition of cell proliferation incubated for 4 days by fluorescence based assay; assay type: functional; conditions: HCT-116, 96 h
[2] = tested on: HCT-116; experiment: Antiproliferative activity against human HCT-116 cells expressing MTAP-/- assessed as inhibition of cell proliferation incubated for 4 days by fluorescence based assay; assay type: functional; conditions: HCT-116, 96 h
[3] = biological target: S-adenosylmethionine synthase isoform type-2 (Homo sapiens, UniProt P31153); experiment: Inhibition of recombinant MAT2A (unknown origin) expressed in baculovirus infected Sf9 insect cells using L-methionine as substrate preincubated for 15 mins followed by substrate addition measured after 60 mins by Kinase-Glo Luminescent assay
Sequence of S-adenosylmethionine synthase isoform type-2 (P31153 whole entry, canonical isoform): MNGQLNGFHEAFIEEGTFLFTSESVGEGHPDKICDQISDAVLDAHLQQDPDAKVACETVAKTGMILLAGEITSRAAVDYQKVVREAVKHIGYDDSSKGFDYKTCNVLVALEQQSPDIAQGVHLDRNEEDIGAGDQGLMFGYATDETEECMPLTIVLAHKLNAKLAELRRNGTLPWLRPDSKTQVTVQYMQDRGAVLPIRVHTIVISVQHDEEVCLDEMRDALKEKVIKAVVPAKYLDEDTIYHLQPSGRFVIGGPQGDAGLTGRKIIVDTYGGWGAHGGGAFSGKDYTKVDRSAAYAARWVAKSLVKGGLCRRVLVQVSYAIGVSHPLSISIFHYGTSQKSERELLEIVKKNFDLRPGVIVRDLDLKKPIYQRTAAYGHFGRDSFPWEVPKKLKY

[4] = Volume of distribution at steady state in ICR mouse at 1 mg/kg, iv measured for 0.083 to 24 hrs by LC-MS analysis; assay type: ADME, organism-based; conditions: in vivo, time 0.083-24 hrs, read-out: Vdss
[5] = AUC in ICR mouse at 1 mg/kg, iv measured for 0.083 to 24 hrs by LC-MS analysis; assay type: ADME, organism-based; design: time upper 24 hrs, time lower 0.083 hrs, dose 1 mg/kg, route iv; conditions: in vivo
[6] = Half life in ICR mouse at 10 mg/kg, po via gavage measured for 0.083 to 24 hrs by LC-MS analysis; assay type: ADME, organism-based; conditions: in vivo, time 0.083-24 hrs
[7] = Cmax in ICR mouse at 10 mg/kg, po via gavage measured for 0.083 to 24 hrs by LC-MS analysis; assay type: ADME, organism-based; design: time upper 24 hrs, dose 10 mg/kg, time lower 0.083 hrs, route po; conditions: in vivo
[8] = Oral bioavailability in ICR mouse at 10 mg/kg administered via gavage measured for 0.083 to 24 hrs by LC-MS analysis; assay type: ADME, organism-based; conditions: in vivo, time 0.083-24 hrs
[9] = Clearance in ICR mouse at 1 mg/kg, iv measured for 0.083 to 24 hrs by LC-MS analysis; assay type: ADME, organism-based; conditions: in vivo, time 0.083-24 hrs
[10] = Tmax in ICR mouse at 10 mg/kg, po via gavage measured for 0.083 to 24 hrs by LC-MS analysis; assay type: ADME, organism-based; conditions: in vivo, time 0.083-24 hrs
[11] = Half life in ICR mouse at 1 mg/kg, iv measured for 0.083 to 24 hrs by LC-MS analysis; assay type: ADME, organism-based; conditions: in vivo, time 0.083-24 hrs
[12] = AUC in ICR mouse at 10 mg/kg, po via gavage measured for 0.083 to 24 hrs by LC-MS analysis; assay type: ADME, organism-based; design: dose 10 mg/kg, time upper 24 hrs, time lower 0.083 hrs, route po; conditions: in vivo
[13] = Intrinsic clearance in human liver microsomes at […] incubated for 5 to 60 mins in presence of NADPH by LC-MS analysis; assay type: ADME, Microsome; conditions: time 5-60 min
[14] = Toxicity in BALB/c mouse xenografted with human HCT-116 cells expressing MTAP-/- assessed as drug tolerance at 50 mg/kg, po qd measured for 18 days; assay type: organism-based; conditions: in vivo, 432 h, time 18 day
[15] = Toxicity in BALB/c mouse xenografted with human HCT-116 cells expressing MTAP-/- assessed as body weight loss at 50 mg/kg, po qd measured for 18 days relative to control; assay type: organism-based; conditions: in vivo, 432 h, time 18 day
[16] = MRT in ICR mouse at 10 mg/kg, po via gavage measured for 0.083 to 24 hrs by LC-MS analysis; assay type: ADME, organism-based; conditions: in vivo, time 0.083-24 hrs
[17] = biological target: UDP-glucuronosyltransferases (UGTs); experiment: Inhibition of UGT (unknown origin) preincubated for 10 mins followed by substrates addition measured after 10 mins by LC-MS analysis; assay type: ADME, protein assay, Homo sapiens
[18] = biological target: Voltage-gated inwardly rectifying potassium channel KCNH2 (Homo sapiens, UniProt Q12809); experiment: Inhibition of hERG potassium ion channel expressed in CHO cells at -80 mV holding potential treated for 2.5 mins by Q patch-clamp method; assay type: toxicity, cell-based
Sequence of Voltage-gated inwardly rectifying potassium channel KCNH2 (Q12809 whole entry): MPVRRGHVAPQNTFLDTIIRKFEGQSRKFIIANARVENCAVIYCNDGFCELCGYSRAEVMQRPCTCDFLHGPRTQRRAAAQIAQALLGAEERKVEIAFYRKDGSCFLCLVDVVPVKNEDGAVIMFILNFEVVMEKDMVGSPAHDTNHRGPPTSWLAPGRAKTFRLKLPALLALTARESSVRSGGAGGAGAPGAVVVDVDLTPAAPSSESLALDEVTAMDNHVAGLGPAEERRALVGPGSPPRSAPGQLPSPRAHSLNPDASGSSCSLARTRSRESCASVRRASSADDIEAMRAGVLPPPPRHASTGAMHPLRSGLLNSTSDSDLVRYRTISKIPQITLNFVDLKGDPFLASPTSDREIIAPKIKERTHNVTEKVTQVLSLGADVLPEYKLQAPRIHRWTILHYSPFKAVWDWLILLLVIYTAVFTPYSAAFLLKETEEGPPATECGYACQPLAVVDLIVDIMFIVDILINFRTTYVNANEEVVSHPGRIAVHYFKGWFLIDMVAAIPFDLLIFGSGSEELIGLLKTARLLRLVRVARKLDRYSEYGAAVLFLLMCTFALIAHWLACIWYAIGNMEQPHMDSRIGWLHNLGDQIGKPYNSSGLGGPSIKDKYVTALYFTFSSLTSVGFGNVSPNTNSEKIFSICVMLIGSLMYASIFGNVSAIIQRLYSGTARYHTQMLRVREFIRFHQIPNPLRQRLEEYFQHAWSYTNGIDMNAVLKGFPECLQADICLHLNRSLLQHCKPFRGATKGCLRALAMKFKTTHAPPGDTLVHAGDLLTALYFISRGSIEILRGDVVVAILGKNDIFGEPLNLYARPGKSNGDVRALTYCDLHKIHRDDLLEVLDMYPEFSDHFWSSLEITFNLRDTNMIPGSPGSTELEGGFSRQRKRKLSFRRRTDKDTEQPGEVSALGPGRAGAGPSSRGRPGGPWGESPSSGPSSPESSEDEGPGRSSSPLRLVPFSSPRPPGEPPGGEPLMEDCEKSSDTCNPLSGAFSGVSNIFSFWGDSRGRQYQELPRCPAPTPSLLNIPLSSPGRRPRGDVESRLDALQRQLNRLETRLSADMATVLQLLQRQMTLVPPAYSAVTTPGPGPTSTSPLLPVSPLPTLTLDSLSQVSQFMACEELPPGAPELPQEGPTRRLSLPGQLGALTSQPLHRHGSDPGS

[19] = biological target: T1, Cytochrome P450 1A2 (Homo sapiens, UniProt P05177); experiment: Inhibition of CYP1A2 in human liver microsomes using phenacetin as substrate preincubated for 10 mins followed by substrate addition measured after 10 mins in presence of NADPH by LC-MS analysis; assay type: ADME, Microsome
T1 sequence (P05177 whole entry): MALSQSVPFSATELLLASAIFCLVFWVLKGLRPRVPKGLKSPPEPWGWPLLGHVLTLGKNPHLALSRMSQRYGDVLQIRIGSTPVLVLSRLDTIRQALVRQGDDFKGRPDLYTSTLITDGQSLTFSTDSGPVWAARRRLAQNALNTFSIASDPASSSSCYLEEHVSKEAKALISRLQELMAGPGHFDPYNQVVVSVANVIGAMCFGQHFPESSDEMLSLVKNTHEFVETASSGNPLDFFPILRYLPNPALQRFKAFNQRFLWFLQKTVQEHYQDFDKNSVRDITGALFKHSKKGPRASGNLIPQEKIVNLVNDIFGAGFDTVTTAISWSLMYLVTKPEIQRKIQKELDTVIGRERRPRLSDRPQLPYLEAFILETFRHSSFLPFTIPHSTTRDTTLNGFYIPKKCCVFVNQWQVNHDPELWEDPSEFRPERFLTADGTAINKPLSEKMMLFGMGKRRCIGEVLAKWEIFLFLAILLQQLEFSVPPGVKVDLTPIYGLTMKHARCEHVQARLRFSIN

[20] = biological target: Cytochrome P450 2D6 (Homo sapiens, UniProt P10635); experiment: Inhibition of CYP2D6 in human liver microsomes using dextromethorphan as substrate preincubated for 10 mins followed by substrate addition measured after 10 mins in presence of NADPH by LC-MS analysis; assay type: ADME, Microsome
Sequence of Cytochrome P450 2D6 (P10635 whole entry): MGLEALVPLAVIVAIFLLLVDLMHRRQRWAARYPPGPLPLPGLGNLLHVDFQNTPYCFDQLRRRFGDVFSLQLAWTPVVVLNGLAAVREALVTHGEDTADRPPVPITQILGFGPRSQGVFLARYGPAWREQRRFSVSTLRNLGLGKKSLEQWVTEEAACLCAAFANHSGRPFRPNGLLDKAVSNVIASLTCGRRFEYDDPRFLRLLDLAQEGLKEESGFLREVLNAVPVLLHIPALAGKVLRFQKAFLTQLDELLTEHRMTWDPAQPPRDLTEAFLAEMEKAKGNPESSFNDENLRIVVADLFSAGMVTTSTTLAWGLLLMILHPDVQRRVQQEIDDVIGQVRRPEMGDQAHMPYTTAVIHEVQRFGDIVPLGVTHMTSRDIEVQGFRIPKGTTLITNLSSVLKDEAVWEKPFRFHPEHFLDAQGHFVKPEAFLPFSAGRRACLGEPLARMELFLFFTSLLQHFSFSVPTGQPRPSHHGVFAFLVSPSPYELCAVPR

[21] = biological target: Cytochrome P450 2C19 (Homo sapiens, UniProt P33261); experiment: Inhibition of CYP2C19 in human liver microsomes using S-mephenytoin as substrate preincubated for 10 mins followed by substrate addition measured after 10 mins in presence of NADPH by LC-MS analysis; assay type: ADME, Microsome
Sequence of Cytochrome P450 2C19 (P33261 whole entry): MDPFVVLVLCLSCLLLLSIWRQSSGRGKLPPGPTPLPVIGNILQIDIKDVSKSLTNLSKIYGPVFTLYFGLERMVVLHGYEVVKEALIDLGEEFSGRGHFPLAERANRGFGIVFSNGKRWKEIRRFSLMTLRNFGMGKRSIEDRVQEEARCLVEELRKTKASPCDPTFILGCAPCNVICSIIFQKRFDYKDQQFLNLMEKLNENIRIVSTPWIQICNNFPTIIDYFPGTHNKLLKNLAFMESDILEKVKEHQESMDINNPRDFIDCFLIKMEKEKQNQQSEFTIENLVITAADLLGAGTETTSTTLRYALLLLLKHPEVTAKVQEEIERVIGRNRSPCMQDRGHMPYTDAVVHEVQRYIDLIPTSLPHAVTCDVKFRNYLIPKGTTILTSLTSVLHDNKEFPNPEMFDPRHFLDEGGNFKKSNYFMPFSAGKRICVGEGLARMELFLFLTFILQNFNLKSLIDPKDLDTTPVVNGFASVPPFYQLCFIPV

[22] = biological target: Cytochrome P450 3A4 (Homo sapiens, UniProt P08684); experiment: Inhibition of CYP3A4 in human liver microsomes using midazolam as substrate preincubated for 10 mins followed by substrate addition measured after 10 mins in presence of NADPH by LC-MS analysis; assay type: ADME, Microsome
Sequence of Cytochrome P450 3A4 (P08684 whole entry): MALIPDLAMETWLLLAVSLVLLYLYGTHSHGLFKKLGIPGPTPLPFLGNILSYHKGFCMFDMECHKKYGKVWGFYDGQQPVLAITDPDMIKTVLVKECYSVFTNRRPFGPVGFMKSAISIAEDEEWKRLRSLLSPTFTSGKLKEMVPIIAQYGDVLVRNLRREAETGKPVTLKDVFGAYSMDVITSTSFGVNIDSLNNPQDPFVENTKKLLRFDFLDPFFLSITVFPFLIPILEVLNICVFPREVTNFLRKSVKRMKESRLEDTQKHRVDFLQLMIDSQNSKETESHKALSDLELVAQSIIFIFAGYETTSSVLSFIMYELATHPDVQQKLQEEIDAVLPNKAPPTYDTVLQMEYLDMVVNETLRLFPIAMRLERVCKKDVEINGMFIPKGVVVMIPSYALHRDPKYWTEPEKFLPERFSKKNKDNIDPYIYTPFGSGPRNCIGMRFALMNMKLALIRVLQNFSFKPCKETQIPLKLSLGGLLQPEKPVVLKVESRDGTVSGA

[23] = Efflux ratio of apparent permeability from basolateral to apical side over apical to basolateral side in MDCKII-MDR1 cells at 2 uM incubated for 2.5 hrs by LC-MS/MS analysis; assay type: ADME, cell-based, Canis lupus familiaris; conditions: dog, MDCK-MDR1
[24] = tested on: HCT-116; experiment: Antitumor activity against human HCT-116 cells expressing MTAP-/- xenografted in BALB/c mouse assessed as tumor regression at 50 mg/kg, po qd measured after 18 days relative to control; assay type: functional; conditions: time 18 day
[25] = tested on: HCT-116; experiment: Antitumor activity against human HCT-116 cells expressing MTAP-/- xenografted in BALB/c mouse assessed as decrease in tumor volume at 50 mg/kg, po qd measured after 6 days; assay type: functional, organism-based; conditions: time 6.0 day
[26] = Apparent permeability of the compound across apical to basolateral side in MDCKII-MDR1 cells at 2 uM incubated for 2.5 hrs by LC-MS/MS analysis; assay type: ADME, cell-based, Canis lupus familiaris; conditions: dog, MDCK-MDR1
[27] = biological target: Cytochrome P450 2C9 (Homo sapiens, UniProt P11712); experiment: Inhibition of CYP2C9 in human liver microsomes using diclofenac as substrate preincubated for 10 mins followed by substrate addition measured after 10 mins in presence of NADPH by LC-MS analysis; assay type: ADME, Microsome
Sequence of Cytochrome P450 2C9 (P11712 whole entry): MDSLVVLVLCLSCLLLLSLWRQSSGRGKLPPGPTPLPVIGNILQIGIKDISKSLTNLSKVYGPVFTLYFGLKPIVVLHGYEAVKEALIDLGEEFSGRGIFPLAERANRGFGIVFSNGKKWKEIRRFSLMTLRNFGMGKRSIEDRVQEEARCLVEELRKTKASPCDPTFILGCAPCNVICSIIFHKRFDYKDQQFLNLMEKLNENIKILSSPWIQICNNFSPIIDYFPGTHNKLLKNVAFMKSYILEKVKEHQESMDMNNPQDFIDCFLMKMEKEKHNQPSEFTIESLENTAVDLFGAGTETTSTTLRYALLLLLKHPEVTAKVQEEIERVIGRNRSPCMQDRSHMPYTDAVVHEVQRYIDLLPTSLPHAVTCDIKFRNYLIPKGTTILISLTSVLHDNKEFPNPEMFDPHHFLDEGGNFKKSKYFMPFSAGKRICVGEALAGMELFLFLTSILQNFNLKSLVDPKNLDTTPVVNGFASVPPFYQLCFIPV

[28] = tested on: HCT-116; experiment: Antitumor activity against human HCT-116 cells expressing MTAP-/- xenografted in BALB/c mouse assessed as tumor growth inhibition at 50 mg/kg, po qd measured for 18 days relative to control; assay type: functional; conditions: HCT-116, 432 h, time 18 day, read-out: TGI

SMILES	IC50 [2] [nM]	IC50 [3] [nM]	other results
CCOc1ccc2c(=O)n(-c3ccc4nn5c(c4c3)CN(C)CC5)c(=O)n(-c3ccc(OC(F)F)cc3)c2n1	82	28	IC50 [1]: > 10000 nM
CCOc1ncc2cc(-c3ccc4nc5n(c4c3)CCN(C)C5)c(=O)n(-c3ccc(OC(F)F)cc3)c2n1	52	18	Vd [4]: 2.18 L/kg; AUC [5]: 990 ng·h/mL; half-life [6]: 3.3 h; Cmax [7]: 2300 ng/mL; bioavailability [8]: 116%; clearance [9]: 17.1 mL/min/kg; Tmax [10]: 0.83 h; half-life [11]: 2.4 h; AUC [12]: 11500 ng·h/mL
CCOc1ncc2cc(-c3ccc4nn5c(c4c3)C(=O)N(C)CC5)c(=O)n(-c3ccc(OC(F)F)cc3)c2n1	80	23	–
CN1CCn2c(nc3ccc(-c4cc5cnc(NCC(F)(F)F)nc5n(-c5ccc(OC(F)F)cc5)c4=O)cc32)C1	166	34	–
CCOc1ncc2cc(-c3ccc4nc5n(c4c3)CCN(CCOC)C5)c(=O)n(-c3ccc(OC(F)F)cc3)c2n1	50	17	–
Cn1cc2cc(-n3cc4cnc(NCC(F)(F)F)nc4c(-c4ccc(Cl)cc4)c3=O)ccc2n1	145	32	–
CCOc1ncc2cc(-c3ccc4c(c3)nc3n4CCN(C)C3)c(=O)n(-c3ccc(OC(F)F)cc3)c2n1	3110	394	–
CCOc1ccc2c(=O)n(-c3ccc4nc5n(c4c3)CCN(C)C5)c(=O)n(-c3ccc(OC(F)F)cc3)c2n1	75	26	CLint [13]: 20.1 µL/min/mg; Activity [14]: Non-Toxic; Activity [15]: 12%; MRT [16]: 4.71 h; IC50 [1]: > 10000 nM; IC50 [17]: > 50000 nM; half-life [6]: 2.98 h; Cmax [7]: 6730 ng/mL; IC50 [18]: > 50000 nM; IC50 [19]: > 50000 nM; IC50 [20]: > 50000 nM; IC50 [21]: 29000 nM; IC50 [22]: 36900 nM; efflux ratio at 2.5 h, 2 µM [23]: 8; Activity [24]: -52%; Activity [25]: Active; Tmax [10]: 0.67 h; Papp A→B at 2.5 h, 2 µM [26]: 2.9 ×10⁻⁶ cm/s; IC50 [27]: 39200 nM; AUC [12]: 41200 ng·h/mL
COc1ncc2cc(-c3ccc4nc5n(c4c3)CCN(C)C5)c(=O)n(-c3ccc(OC(F)F)cc3)c2n1	484	64	–
CCOc1ncc2cc(-c3ccc4nc5n(c4c3)CCN(CC#N)C5)c(=O)n(-c3ccc(OC(F)F)cc3)c2n1	56	20	–
CCOc1ncc2nc(-c3ccc4nn(C)cc4c3)c(=O)n(-c3ccc(OC(F)F)cc3)c2n1	387	39	–
CCOc1ncc2cc(-c3ccc4nc5n(c4c3)CCN(C)C5)c(=O)n(-c3ccc(Cl)cc3)c2n1	119	51	–
CCOc1ncc2c(n1)n(-c1ccc(OC(F)F)cc1)c(=O)n2Cc1ccc2nn(C)cc2c1	> 10000	> 1000	–
CN1CCn2c(nc3ccc(-c4cc5cnc(N6CCCC6)nc5n(-c5ccc(OC(F)F)cc5)c4=O)cc32)C1	> 10000	> 1000	–
CCOc1ncc2cc(-c3ccc4c(c3)OCC3(CCN(C)CC3)O4)c(=O)n(-c3ccc(OC(F)F)cc3)c2n1	> 10000	> 1000	–
CCOc1ncc2cc(-c3ccc4ncn5c4c3OCC5)c(=O)n(-c3ccc(OC(F)F)cc3)c2n1	> 10000	> 1000	–
CC(C)Oc1ncc2cc(-c3ccc4nc5n(c4c3)CCN(C)C5)c(=O)n(-c3ccc(OC(F)F)cc3)c2n1	84	27	–
CN1CCn2c(nc3ccc(-c4cc5cnc(C6CC6)nc5n(-c5ccc(OC(F)F)cc5)c4=O)cc32)C1	34	14	half-life [6]: 4 h; Cmax [7]: 1740 ng/mL; Tmax [10]: 0.5 h; AUC [12]: 11400 ng·h/mL
CCNc1ncc2cc(-c3ccc4nc5n(c4c3)CCN(C)C5)c(=O)n(-c3ccc(OC(F)F)cc3)c2n1	42	14	half-life [6]: 2.9 h; Cmax [7]: 1050 ng/mL; Tmax [10]: 0.33 h; AUC [12]: 3200 ng·h/mL
CCOc1ncc2cc(-c3cc4c5c(c3)ncn5CCO4)c(=O)n(-c3ccc(OC(F)F)cc3)c2n1	447	72	–
CCOc1ccc2cc(-c3ccc4nn(C)cc4c3)c(=O)n(-c3ccc(OC(F)F)cc3)c2c1	355	34	–
CCOc1ncc2cc(-c3ccc4nn5c(c4c3)CN(C)CC5)c(=O)n(-c3ccc(OC(F)F)cc3)c2n1	56	20	–
CCOc1ncc2cc(-c3ccc4nc5n(c4c3)CCN(C(C)C)C5)c(=O)n(-c3ccc(OC(F)F)cc3)c2n1	53	17	–
CN1CCn2c(nc3ccc(-c4cc5cnc(N6CCC6)nc5n(-c5ccc(OC(F)F)cc5)c4=O)cc32)C1	6120	324	–
COc1ccc(-c2c(Nc3ccccn3)[nH]c3c(C4=CCCCC4)c(-c4ccccc4)nn3c2=O)cc1	244	–	inhibition in vivo at 50 mg/kg [28]: 34%
CCOc1ncc2cc(-c3ccc4nc5n(c4c3)CCN(CC3COC3)C5)c(=O)n(-c3ccc(OC(F)F)cc3)c2n1	67	23	–
CCOc1ncc2cc(-c3ccc4nc5n(c4c3)CCN(C)C5)c(=O)n(-c3ccc(OC)nc3)c2n1	792	132	–
CN1CCn2c(nc3ccc(-c4cc5cnc(OCC(F)F)nc5n(-c5ccc(OC(F)F)cc5)c4=O)cc32)C1	159	37	–
CCOc1ncc2cc(-c3ccc4nc5n(c4c3)CCN(C(C)=O)C5)c(=O)n(-c3ccc(OC(F)F)cc3)c2n1	118	52	–
CCOc1ccc2cc(-c3ccc4c(c3)C3(CC3)CO4)c(=O)n(-c3ccc(OC(F)F)cc3)c2c1	315	63	–
